Holding throughout (test): DTP human tumour cell line panel, 48 h
Test [1] relates to SN12C.
Test [2] relates to RPMI-8226.
The subject of test [3] is SR.
The subject of test [4] is LOX IMVI.
In test [5] the test system is CAKI-1.
In test [6] the test system is TK-10.
Test [7] relates to SF-268.
Test [8] deals with HT-29.
Test [9] concerns EKVX.
The test system of test [10] is HCT-15.
Test [11] deals with Hs-578T.
The test system of test [12] is T47D.
Test [13] has as its system HOP-92.
Test [14] concerns NCI-H23.
The test system of test [15] is IGROV-1.
Test [16] relates to PC-3.
The subject of test [17] is SK-MEL-5.
Test [18] deals with CCRF-CEM.
For test [19], the system named is HL-60.
Test [20] relates to SK-MEL-2.

The record followed here is ChEMBL document CHEMBL1201862, “PubChem BioAssay data set” (2004).

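Results reflect a 48-hour exposure of cells in 96-well plates to compound at five concentrations. GI50 is the concentration that inhibits growth by half.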 Calls of active or inactive are those of the source. Rule as the data show it: active = GI50 up to about 1.1 µM and inactive = higher. A value given as a limit tells only on which side of the number the result lay.

As a reminder, the GI50 is the concentration at which growth is held to half of that of the control. For `O=C1C=CC(=O)C1(Br)Br`, the GI50 in [1] is 7.96 µM (inactive); in test [2], 6.64 µM (inactive); in test [3], 3.42 µM (inactive); in [4], 12.1 µM (inactive); in test [5], 5.11 µM (inactive); in test [6], 2.67 µM (inactive). Besides, the GI50 in test [7] is 18.5 µM (inactive); in [8], 7.38 µM (inactive); in test [9] it was 14.5 µM (inactive); in [10], 6.53 µM; in test [11], 17.9 µM (inactive); in test [12], 14.8 µM (inactive). Besides, the GI50 in test [13] is 16.3 µM (inactive); in [14], 15.5 µM (inactive); in test [15], 5.01 µM (inactive); in [16], 14.6 µM (inactive); in [17], 16.9 µM (inactive); in [18], 7.55 µM (inactive). For the same molecule, the GI50 in test [19] was 11.4 µM (inactive); in test [20], 12.5 µM (inactive).
For the molecule `COC(=O)[C@@H]1CN(C(=O)Cc2ccccc2)C(=O)N1`, the GI50 in test [1], in [2], in test [3], in test [4], in test [5] and in test [6] was > 100 µM (inactive) each time. The GI50 in test [7], in test [8], in [9], in test [11], in [12] and in test [13] was > 100 µM (inactive) in each case. The GI50 in test [14], in [15], in [16], in test [17], in test [18] and in [19] was > 100 µM (inactive) in each case.
As to `CC(=O)O[C@H]1CC[C@]2(C=O)[C@H]3CC[C@]4(C)[C@@H](C5=CC(=O)OC5)CC[C@]4(O)[C@@H]3CC[C@]2(O)C1` [STROPHANTHIDIN ACETATE], the GI50 is 0.42 µM (active) in test [1]; 0.313 µM (active) in test [2]; 0.528 µM (active) in test [3]; 0.222 µM (active) in [4]; 0.0536 µM (active) in [5]; 0.211 µM (active) in [6]. Moreover, the GI50 in test [7] was 0.171 µM (active); in [8], 0.212 µM (active); in test [9], 0.225 µM (active); in test [10], 0.203 µM; in test [11], 0.45 µM (active); in test [12], 0.407 µM (active). Also, the GI50 in test [13] is 0.424 µM (active); in [14], 0.111 µM (active); in test [15] it was 0.31 µM (active); in test [16] it was 0.264 µM (active); in [17], 0.0923 µM (active); in test [18], 0.0605 µM (active). Besides, the GI50 in [19] is 0.344 µM (active); in [20], 0.324 µM (active).
`CCOP(=O)(CCC(O)CNc1nc(N)nc(Cl)c1/N=N/c1ccc(Cl)cc1)OCC` (stereo unspecified): the GI50 in test [1] was 17.2 µM (inactive); in test [2], 8.47 µM (inactive); in test [3], 7.87 µM (inactive); in test [4], 8.67 µM (inactive); in test [5] it was 2.96 µM (inactive); in test [6], 14.8 µM (inactive). The GI50 is 15.3 µM (inactive) in test [7]; 15.3 µM (inactive) in test [8]; 18.8 µM (inactive) in [9]; 6.95 µM in test [10]; 5.58 µM (inactive) in test [11]; 16.9 µM (inactive) in test [12]. Also, the GI50 is 0.377 µM (active) in test [13]; 17 µM (inactive) in [14]; 15.2 µM (inactive) in [15]; 12.4 µM (inactive) in test [16]; 12.7 µM (inactive) in [17]; 5.75 µM (inactive) in [18]. Moreover, the GI50 in [19] was 3.5 µM (inactive); in [20] it was 11.6 µM (inactive).
Regarding `O=c1c(C(c2ccccn2)c2c(O)oc3cc(O)ccc3c2=O)c(O)oc2cc(O)ccc12`, the GI50 in [1], in [2], in test [3], in [4], in test [5] and in test [6] was > 100 µM (inactive) throughout. Besides, the GI50 is > 100 µM (inactive) in [7]; > 100 µM (inactive) in test [8]; > 100 µM (inactive) in test [9]; greater than 100 µM in test [10]; > 100 µM (inactive) in test [11]; > 100 µM (inactive) in test [12]. Also, the GI50 in test [13], in test [14], in test [15], in test [16], in test [17] and in [18] was > 100 µM (inactive) in each case. Moreover, in test [20], the GI50 is > 100 µM (inactive).
Take `CCCC1(N)CC(OC)OC(C)C1O` (stereo unspecified): the GI50 in test [1], in test [2], in test [3], in test [4], in [5] and in test [6] was > 100 µM (inactive) throughout. The GI50 was > 100 µM (inactive) in test [7]; > 100 µM (inactive) in test [8]; > 100 µM (inactive) in test [9]; greater than 100 µM in test [10]; > 100 µM (inactive) in [11]; > 100 µM (inactive) in [12]. Besides, the GI50 in test [13], in test [14], in [15], in test [16], in test [17] and in test [18] was > 100 µM (inactive) each time. The GI50 in [19] and in test [20] was > 100 µM (inactive) in each case.
Consider `COc1ccc(-c2c3c(nc4nc(SC)nc(SC)c24)CCCC3)cc1OC`, for which the GI50 in test [1] was > 100 µM (inactive); in test [2] it was 45.8 µM (inactive); in test [3] it was 8.07 µM (inactive); in [4], 46.6 µM (inactive); in [5], 67.9 µM (inactive); in [6], 38.5 µM (inactive). Moreover, the GI50 is 82.2 µM (inactive) in [7]; 36.6 µM (inactive) in test [8]; 70 µM (inactive) in test [9]; 16 µM in test [10]; 19.1 µM (inactive) in [11]; 47.6 µM (inactive) in test [12]. In addition, the GI50 in test [13] was 40.2 µM (inactive); in test [14] it was > 100 µM (inactive); in [15] it was > 100 µM (inactive); in test [16] it was 60 µM (inactive); in test [17], 80.2 µM (inactive); in [18] it was 21.3 µM (inactive). The values for the GI50 in test [19] and in [20] were 25.1 µM (inactive) and 25.8 µM (inactive), respectively.
In the case of `O=c1cc(-c2nc3ccccc3[nH]2)[nH]c2nc(-c3nc4ccccc4[nH]3)cc(-c3ccc(Cl)cc3)c12`, the GI50 in [1] was 16.5 µM (inactive); in test [2] it was 11.5 µM (inactive); in test [3], 15.2 µM (inactive); in test [4] it was 15.5 µM (inactive); in test [5], 21.9 µM (inactive); in test [6], 19.4 µM (inactive). The GI50 was 15.8 µM (inactive) in test [7]; 20 µM (inactive) in test [8]; 23.3 µM (inactive) in test [9]; 10 µM in test [10]; 30.5 µM (inactive) in [11]; 14.4 µM (inactive) in test [12]. Also, the GI50 in test [13] was 5.52 µM (inactive); in test [14], 40.2 µM (inactive); in test [15], 1.42 µM (inactive); in [16] it was 19.5 µM (inactive); in test [17], 15.7 µM (inactive); in [18] it was 24.7 µM (inactive). For the same molecule, the values for the GI50 in test [19] and in test [20] were 24.9 µM (inactive) and 12.2 µM (inactive), respectively.
For the molecule `NC12CCC(CC1=O)C2` (stereo unspecified), the GI50 in test [1], in test [2], in test [3], in test [4], in test [6] and in [7] was > 100 µM (inactive) in each case. For the same molecule, the GI50 in [8] was > 100 µM (inactive); in test [9], > 100 µM (inactive); in test [10] it was greater than 100 µM; in test [11], > 100 µM (inactive); in [12], > 100 µM (inactive); in test [13], > 100 µM (inactive). Also, the GI50 in [14], in [15], in [16], in test [17], in [18] and in test [19] was > 100 µM (inactive) throughout. Besides, the GI50 in test [20] is > 100 µM (inactive).
